According to ChEMBL document CHEMBL5143597, “Design and synthesis of novel spirocyclic carboxylic acids as potent and orally bioavailable DGAT1 inhibitors and their biological evaluation” (Bioorg Med Chem Lett, 2022):
Activity calls are given as the source filed them. The calls are words filed in the database; no cut-off is given here.

What was measured:
[1] = target: T1, Diacylglycerol O-acyltransferase 1 (Homo sapiens, UniProt O75907); assay: Inhibition of human DGAT1 in serum starved HEK293 cells assessed as inhibition of triglyceride synthesis incubated for 20 mins followed by 13C-addition of 13C-oleic acid pre-complexed with BSA for 120 mins by LC-MS-based mass spectrophotometric analysis; type: cell-based
T1 sequence (O75907 whole entry): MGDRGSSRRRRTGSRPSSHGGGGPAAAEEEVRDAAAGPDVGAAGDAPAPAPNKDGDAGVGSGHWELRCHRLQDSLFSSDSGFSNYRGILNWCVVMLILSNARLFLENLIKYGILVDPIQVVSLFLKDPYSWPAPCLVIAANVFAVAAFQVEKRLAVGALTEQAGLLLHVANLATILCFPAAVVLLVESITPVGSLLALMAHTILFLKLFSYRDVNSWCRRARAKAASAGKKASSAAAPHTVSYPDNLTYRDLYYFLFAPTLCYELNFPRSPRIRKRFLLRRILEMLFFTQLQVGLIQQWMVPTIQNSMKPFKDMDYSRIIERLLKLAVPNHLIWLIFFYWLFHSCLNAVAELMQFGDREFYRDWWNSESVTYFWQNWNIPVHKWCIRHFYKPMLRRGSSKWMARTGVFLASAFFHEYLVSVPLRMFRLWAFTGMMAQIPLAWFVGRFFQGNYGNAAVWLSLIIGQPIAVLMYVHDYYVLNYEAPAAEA

[2] = target: T1, Diacylglycerol O-acyltransferase 1; assay: Inhibition of recombinant human DGAT1 expressed in Sf9 cell membrane assessed as inhibition of triglyceride synthesis incubated for 1 hrs by LC-MS-based mass spectrophotometric analysis; type: cell membranes
CYP1A2 = target: T2, CYP1A2 (Homo sapiens, UniProt P05177); assay: Inhibition of recombinant human CYP1A2 at 25 uM by fluorescence plate reader analysis; type: ADME
T2 sequence (P05177 whole entry): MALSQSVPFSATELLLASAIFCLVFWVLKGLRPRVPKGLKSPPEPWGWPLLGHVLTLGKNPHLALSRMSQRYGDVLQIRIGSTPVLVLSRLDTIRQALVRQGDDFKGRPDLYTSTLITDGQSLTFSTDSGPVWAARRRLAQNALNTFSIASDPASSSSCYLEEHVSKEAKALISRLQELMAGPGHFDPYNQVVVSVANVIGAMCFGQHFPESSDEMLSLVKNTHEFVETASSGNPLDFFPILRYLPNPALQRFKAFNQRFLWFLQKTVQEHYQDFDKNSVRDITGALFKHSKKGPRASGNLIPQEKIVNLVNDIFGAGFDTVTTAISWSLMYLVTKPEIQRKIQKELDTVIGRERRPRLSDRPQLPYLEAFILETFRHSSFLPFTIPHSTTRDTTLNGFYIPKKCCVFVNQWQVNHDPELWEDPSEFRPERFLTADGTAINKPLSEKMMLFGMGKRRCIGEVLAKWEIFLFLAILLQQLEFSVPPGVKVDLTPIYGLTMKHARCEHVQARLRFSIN

[3] = Solubility of compound in PBS at pH 7.4 incubated for 4 hrs under shaking condition by UV absorbance based analysis; type: physicochemical
[4] = Solubility of compound in PBS at pH 4 incubated for 4 hrs under shaking condition by UV absorbance based analysis; type: physicochemical
CYP2D6 = CYP2D6 (Homo sapiens, UniProt P10635); assay: Inhibition of recombinant human CYP2D6 at 10 uM by fluorescence plate reader analysis; type: ADME
Chain of CYP2D6 (P10635 whole entry): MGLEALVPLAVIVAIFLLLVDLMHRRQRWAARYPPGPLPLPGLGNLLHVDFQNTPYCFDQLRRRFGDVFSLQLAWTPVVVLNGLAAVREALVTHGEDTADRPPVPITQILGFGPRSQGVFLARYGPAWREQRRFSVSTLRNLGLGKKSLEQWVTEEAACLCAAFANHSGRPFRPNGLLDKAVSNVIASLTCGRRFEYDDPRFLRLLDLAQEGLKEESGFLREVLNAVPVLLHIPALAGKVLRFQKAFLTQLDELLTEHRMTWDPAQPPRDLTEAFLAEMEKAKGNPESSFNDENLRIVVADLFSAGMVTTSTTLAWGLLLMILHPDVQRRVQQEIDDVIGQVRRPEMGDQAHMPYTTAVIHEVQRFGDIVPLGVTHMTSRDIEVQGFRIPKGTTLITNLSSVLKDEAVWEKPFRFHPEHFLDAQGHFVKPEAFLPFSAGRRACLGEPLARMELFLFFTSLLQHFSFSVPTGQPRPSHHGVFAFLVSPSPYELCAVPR

[5] = Solubility of compound in PBS at pH 9 incubated for 4 hrs under shaking condition by UV absorbance based analysis; type: physicochemical
[6] = Solubility of compound in PBS at pH 2 incubated for 4 hrs under shaking condition by UV absorbance based analysis; type: physicochemical
CYP3A4 = CYP3A4 (Homo sapiens, UniProt P08684); assay: Inhibition of recombinant human CYP3A4 at 25 uM by fluorescence plate reader analysis; type: ADME
Chain of CYP3A4 (P08684 whole entry): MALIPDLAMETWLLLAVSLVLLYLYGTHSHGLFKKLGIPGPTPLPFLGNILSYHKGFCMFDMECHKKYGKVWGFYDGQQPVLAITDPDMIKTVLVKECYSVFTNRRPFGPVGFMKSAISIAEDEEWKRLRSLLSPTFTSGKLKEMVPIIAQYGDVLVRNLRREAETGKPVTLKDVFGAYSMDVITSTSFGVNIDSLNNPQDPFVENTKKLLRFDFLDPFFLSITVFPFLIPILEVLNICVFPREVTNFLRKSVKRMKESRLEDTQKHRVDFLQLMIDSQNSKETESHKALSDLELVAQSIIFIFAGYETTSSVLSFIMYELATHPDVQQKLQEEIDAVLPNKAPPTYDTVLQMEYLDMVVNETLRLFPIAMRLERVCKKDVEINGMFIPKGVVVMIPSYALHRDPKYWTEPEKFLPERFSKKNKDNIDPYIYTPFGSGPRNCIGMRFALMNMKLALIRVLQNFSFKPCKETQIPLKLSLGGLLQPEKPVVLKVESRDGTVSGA

Mus musculus [7] = assay: In vivo inhibition of DGAT1 in C57BL/6 mouse model of acute lipid challenge assessed as reduction in AUC plasma triglyceride level at 3 to 10 mg/kg, po as corn oil bolus by Oral lipid tolerance test relative to control; type: functional, organism-based; details: dose 3-10 mg/kg
Mus musculus [8] = assay: In vivo inhibition of DGAT1 in C57BL/6 mouse model of acute lipid challenge assessed as reduction in chylomicron derived plasma triglyceride excursion at 3 to 10 mg/kg, po as corn oil bolus by Oral lipid tolerance test relative to control; type: functional, organism-based; details: dose 3-10 mg/kg

## O=C(O)CC1CCC2(CC1)CCC(c1ccc(NC(=O)c3nnc(Nc4ccc(F)c(F)c4)o3)cc1)CC2 (stereo in doubt; 8a)
[1]
  IC50: 24 nM
[2]
  IC50: 64 nM

## O=C([O-])CC1CCC2(CC1)CCN(c1ccc(NC(=O)c3nnc(Nc4ccc(F)c(F)c4)o3)cn1)CC2.[Na+]
CYP1A2
  inhibition at 25 µM: 8%
[3]
  solubility at 4 h: 37 µM
[4]
  solubility at 4 h: < 6 µM
CYP2D6
  inhibition at 10 µM: 7%
[5]
  solubility at 4 h: < 6 µM
[6]
  solubility at 4 h: 8 µM
CYP3A4
  inhibition at 25 µM: 12%

## O=C(Nc1ccc(N2CCC3(CC2)CC(C(=O)O)C3)nc1)c1nnc(Nc2ccc(F)c(F)c2)o1
Mus musculus [7]
  inhibition: Active
Mus musculus [8]
  inhibition: Active

## O=C(O)CC1CCC2(CC1)CCC(c1ccc(NC(=O)c3nnc(Nc4ccc(F)c(F)c4)o3)cc1)CC2 (stereo in doubt; 8b)
[1]
  IC50: 23 nM
[2]
  IC50: 75 nM
